{
  "source": "paper PMC5218480",
  "about": "(PLoS ONE, 2017)",
  "system": "MV-4-11 cells",
  "assay": "Gene expression microarray analysis (Affymetrix PrimeView) and GSEA",
  "format": "cell-based, human",
  "design": "RFU PODN (11730768_x_at) / Fold change /veh PODN (11730768_x_at) / RFU LINC00158 (11744669_a_at) / Fold change /veh LINC00158 (11744669_a_at) / RFU DUSP10 (11751237_a_at) / Fold change /veh DUSP10 (11751237_a_at) / RFU ID3 (11757404_x_at) / Fold change /veh ID3 (11757404_x_at) / RFU PLEKHG5 (11737974_s_at) / Fold change /veh PLEKHG5 (11737974_s_at) / RFU LRRC4B (11730491_at) / Fold change /veh LRRC4B (11730491_at) / RFU GIMAP4 (11747438_a_at) / Fold change /veh GIMAP4 (11747438_a_at) / RFU KRT8 (11758183_x_at) / Fold change /veh KRT8 (11758183_x_at) / RFU CNN1 (11734310_a_at) / Fold change /veh CNN1 (11734310_a_at) / RFU VPS37D (11726825_at) / Fold change /veh VPS37D (11726825_at) / RFU C10orf10 (11716522_x_at) / Fold change /veh C10orf10 (11716522_x_at) / RFU KIR2DL2 /// KIR2DL4 /// KIR2DL5A /// KIR2DL5B /// KIR2DS1 /// KIR2DS2 /// KIR2DS3 /// KIR2DS4 /// KIR3DL3 /// KIR3DL3 /// KIR3DS1 (11738374_at) / Fold change /veh KIR2DL2 /// KIR2DL4 /// KIR2DL5A /// KIR2DL5B /// KIR2DS1 /// KIR2DS2 /// KIR2DS3 /// KIR2DS4 /// KIR3DL3 /// KIR3DL3 /// KIR3DS1 (11738374_at) / RFU C1QL1 (11718748_at) / Fold change /veh C1QL1 (11718748_at) / RFU TMPRSS4 (11747572_a_at) / Fold change /veh TMPRSS4 (11747572_a_at) / RFU HAMP (11756126_x_at) / Fold change /veh HAMP (11756126_x_at) / RFU RNFT2 (11725882_a_at) / Fold change /veh RNFT2 (11725882_a_at) / RFU NR4A2 (11747474_a_at) / Fold change /veh NR4A2 (11747474_a_at) / RFU ABCC12 (11746883_a_at) / Fold change /veh ABCC12 (11746883_a_at) / RFU TMEM136 (11760407_x_at) / Fold change /veh TMEM136 (11760407_x_at) / RFU CLDN22 /// WWC2 (11732394_at) / Fold change /veh CLDN22 /// WWC2 (11732394_at) / RFU HLA-DPB1 (11760878_x_at) / Fold change /veh HLA-DPB1 (11760878_x_at) / RFU SPINT1 (11716480_a_at) / Fold change /veh SPINT1 (11716480_a_at) / RFU GAP43 (11754022_s_at) / Fold change /veh GAP43 (11754022_s_at) / RFU A4GNT (11735810_at) / Fold change /veh A4GNT (11735810_at) / RFU PRB3 (11715151_x_at) / Fold change /veh PRB3 (11715151_x_at) / RFU TUBB4B (11761932_at) / Fold change /veh TUBB4B (11761932_at) / RFU CAPN14 (11732068_a_at) / Fold change /veh CAPN14 (11732068_a_at) / RFU TMCC2 (11721928_a_at) / Fold change /veh TMCC2 (11721928_a_at) / RFU IRGQ (11745062_a_at) / Fold change /veh IRGQ (11745062_a_at) / RFU FAM174B (11720279_a_at) / Fold change /veh FAM174B (11720279_a_at) / RFU TMPRSS4 (11748680_a_at) / Fold change /veh TMPRSS4 (11748680_a_at) / RFU FAM212B (11763350_a_at) / Fold change /veh FAM212B (11763350_a_at) / RFU PLEKHG5 (11743358_a_at) / Fold change /veh PLEKHG5 (11743358_a_at) / RFU ZSCAN30 (11745921_a_at) / Fold change /veh ZSCAN30 (11745921_a_at) / RFU CMKLR1 (11741424_a_at) / Fold change /veh CMKLR1 (11741424_a_at) / RFU LOC101060620 /// MAPK8IP1 (11723275_at) / Fold change /veh LOC101060620 /// MAPK8IP1 (11723275_at) / RFU SPTSSB (11747773_x_at) / Fold change /veh SPTSSB (11747773_x_at) / RFU PRSS12 (11739890_at) / Fold change /veh PRSS12 (11739890_at) / RFU BIN1 (11741810_x_at) / Fold change /veh BIN1 (11741810_x_at) / RFU WNT11 (11732464_a_at) / Fold change /veh WNT11 (11732464_a_at) / RFU C10orf10 (11716521_a_at) / Fold change /veh C10orf10 (11716521_a_at) / RFU C5orf56 (11738089_at) / Fold change /veh C5orf56 (11738089_at) / RFU CYB561 (11721691_x_at) / Fold change /veh CYB561 (11721691_x_at) / RFU ANKRD19P (11752326_a_at) / Fold change /veh ANKRD19P (11752326_a_at) / RFU OR2T12 /// OR2T33 /// OR2T8 (11738714_s_at) / Fold change /veh OR2T12 /// OR2T33 /// OR2T8 (11738714_s_at) / RFU VCAN (11748164_a_at) / Fold change /veh VCAN (11748164_a_at) / RFU JSRP1 (11732532_at) / Fold change /veh JSRP1 (11732532_at) / RFU KRTAP10-11 (11738290_x_at) / Fold change /veh KRTAP10-11 (11738290_x_at) / RFU MYO3A (11730013_a_at) / Fold change /veh MYO3A (11730013_a_at) / RFU EBF3 (11725865_a_at) / Fold change /veh EBF3 (11725865_a_at) / RFU CAMK2N1 (11719241_x_at) / Fold change /veh CAMK2N1 (11719241_x_at) / RFU C5orf56 (11738088_a_at) / Fold change /veh C5orf56 (11738088_a_at) / RFU OLFML3 (11715873_a_at) / Fold change /veh OLFML3 (11715873_a_at) / RFU LOC100653217 /// NTM (11731650_a_at) / Fold change /veh LOC100653217 /// NTM (11731650_a_at) / RFU MAPK11 (11762145_a_at) / Fold change /veh MAPK11 (11762145_a_at) / RFU FIZ1 (11724087_x_at) / Fold change /veh FIZ1 (11724087_x_at) / RFU OASL (11726364_x_at) / Fold change /veh OASL (11726364_x_at) / RFU SOX15 (11748057_x_at) / Fold change /veh SOX15 (11748057_x_at) / RFU CD79A (11719716_a_at) / Fold change /veh CD79A (11719716_a_at) / RFU HIST1H1D (11736915_at) / Fold change /veh HIST1H1D (11736915_at) / RFU CASKIN2 (11723855_a_at) / Fold change /veh CASKIN2 (11723855_a_at) / RFU LOC730098 (11760151_x_at) / Fold change /veh LOC730098 (11760151_x_at) / RFU OR4N2 (11742367_at) / Fold change /veh OR4N2 (11742367_at) / RFU PRRT2 (11749266_a_at) / Fold change /veh PRRT2 (11749266_a_at) / RFU SNX32 (11753110_a_at) / Fold change /veh SNX32 (11753110_a_at) / RFU CDHR5 (11726645_a_at) / Fold change /veh CDHR5 (11726645_a_at) / RFU RCAN1 (11760418_a_at) / Fold change /veh RCAN1 (11760418_a_at) / RFU FAM167A (11723789_a_at) / Fold change /veh FAM167A (11723789_a_at) / RFU FAM26E (11764081_at) / Fold change /veh FAM26E (11764081_at) / RFU ISYNA1 (11749810_s_at) / Fold change /veh ISYNA1 (11749810_s_at) / RFU ACY1 (11761880_at) / Fold change /veh ACY1 (11761880_at) / RFU 11764098_at / Fold change /veh 11764098_at / RFU SAMD14 (11745864_x_at) / Fold change /veh SAMD14 (11745864_x_at) / RFU NPB (11741838_a_at) / Fold change /veh NPB (11741838_a_at) / RFU TMPRSS6 (11731388_a_at) / Fold change /veh TMPRSS6 (11731388_a_at) / RFU KRTAP10-2 (11738614_at) / Fold change /veh KRTAP10-2 (11738614_at) / RFU ARHGAP8 /// PRR5-ARHGAP8 (11727945_x_at) / Fold change /veh ARHGAP8 /// PRR5-ARHGAP8 (11727945_x_at) / RFU KRTAP5-7 /// NADSYN1 (11734609_at) / Fold change /veh KRTAP5-7 /// NADSYN1 (11734609_at) / RFU RASL12 (11751679_a_at) / Fold change /veh RASL12 (11751679_a_at) / RFU CDKN2B (11736163_a_at) / Fold change /veh CDKN2B (11736163_a_at) / RFU PRF1 (11729649_at) / Fold change /veh PRF1 (11729649_at) / RFU, ZNF638 /// ZNF638-IT1 / Fold change vs veh, ZNF638 /// ZNF638-IT1 / RFU, PANK3 / Fold change vs veh, PANK3 / RFU, SH3YL1 / Fold change vs veh, SH3YL1 / RFU, ZEB2 / Fold change vs veh, ZEB2 / RFU, NRIP1 / Fold change vs veh, NRIP1 / RFU, PTTG1IP / Fold change vs veh, PTTG1IP / RFU, CAPN2 / Fold change vs veh, CAPN2 / RFU, MED14 / Fold change vs veh, MED14 / RFU, SNORA58 / Fold change vs veh, SNORA58 / RFU, C1orf63 / Fold change vs veh, C1orf63 / RFU, LRRFIP1 / Fold change vs veh, LRRFIP1 / RFU, NDUFAF7 / Fold change vs veh, NDUFAF7 / RFU, SLC12A2 / Fold change vs veh, SLC12A2 / RFU, IBTK / Fold change vs veh, IBTK / RFU, ESF1 / Fold change vs veh, ESF1 / Fold change vs veh, TMEM50B / RFU, TAOK1 / Fold change vs veh, TAOK1 / RFU, ACBD3 / Fold change vs veh, ACBD3 / RFU, TMA16 / Fold change vs veh, TMA16 / RFU, RWDD3 / Fold change vs veh, RWDD3 / RFU, BCAT1 / Fold change vs veh, BCAT1 / RFU, EDEM3 / Fold change vs veh, EDEM3 / RFU, TMEM33 / Fold change vs veh, TMEM33 / RFU, WDR75 / Fold change vs veh, WDR75 / RFU, AHCTF1 / Fold change vs veh, AHCTF1 / RFU, TFRC / Fold change vs veh, TFRC / RFU, ZDHHC17 / Fold change vs veh, ZDHHC17 / RFU, NOM1 / Fold change vs veh, NOM1 / RFU, ARL8B / Fold change vs veh, ARL8B / RFU, ZBTB11 / Fold change vs veh, ZBTB11 / RFU, TAMM41 / Fold change vs veh, TAMM41 / RFU, KIAA1704 /// LOC100996395 / Fold change vs veh, KIAA1704 /// LOC100996395 / RFU, ING1 / Fold change vs veh, ING1 / RFU, TRMT61B / Fold change vs veh, TRMT61B / RFU, FUBP3 / Fold change vs veh, FUBP3 / RFU, TP53 / Fold change vs veh, TP53 / RFU, TNKS2 / Fold change vs veh, TNKS2 / RFU, ZFP14 / Fold change vs veh, ZFP14 / RFU, ACTR2 / Fold change vs veh, ACTR2 / RFU, PPP3R1 / Fold change vs veh, PPP3R1 / RFU, PIK3R1 / Fold change vs veh, PIK3R1 / RFU, HNRNPA1 / Fold change vs veh, HNRNPA1 / RFU, RNF170 / Fold change vs veh, RNF170 / RFU, ZNF28 / Fold change vs veh, ZNF28 / RFU, RNGTT / Fold change vs veh, RNGTT / RFU, OGT / Fold change vs veh, OGT / RFU, BRD1 / Fold change vs veh, BRD1 / RFU, MARS / Fold change vs veh, MARS / RFU, ZNF655 / Fold change vs veh, ZNF655 / RFU, FAHD1 / Fold change vs veh, FAHD1 / RFU, BDP1 / Fold change vs veh, BDP1 / RFU, LRRCC1 / Fold change vs veh, LRRCC1 / RFU, ARID1A / Fold change vs veh, ARID1A / RFU, ZNF146 / Fold change vs veh, ZNF146 / RFU, ZNF330 / Fold change vs veh, ZNF330 / RFU, GPN3 / Fold change vs veh, GPN3 / RFU, C9orf123 / Fold change vs veh, C9orf123 / RFU, N4BP2L2 / Fold change vs veh, N4BP2L2 / RFU, ARFIP1 / Fold change vs veh, ARFIP1 / RFU, FAM179B / Fold change vs veh, FAM179B / RFU, BCL10 / Fold change vs veh, BCL10 / RFU, UHRF1BP1L / Fold change vs veh, UHRF1BP1L / RFU, BET1 / Fold change vs veh, BET1 / RFU, CNOT2 / Fold change vs veh, CNOT2 / RFU, ZNF268 / Fold change vs veh, ZNF268 / Fold change vs veh, ZNF507 / RFU, DGCR2 / Fold change vs veh, DGCR2 / RFU, WDSUB1 / Fold change vs veh, WDSUB1 / Fold change vs veh, HSP90B1 /// MIR3652 / RFU, ADSS / Fold change vs veh, ADSS / RFU, GK / Fold change vs veh, GK / RFU, ZNF148 / Fold change vs veh, ZNF148 / RFU, TAF9 / Fold change vs veh, TAF9 / RFU, SLC1A5 / Fold change vs veh, SLC1A5 / RFU, SLMO2 / Fold change vs veh, SLMO2 / RFU, ABCC4 / Fold change vs veh, ABCC4 / RFU, LOC101060439 /// RAP1B / Fold change vs veh, LOC101060439 /// RAP1B / RFU, RFX7 / Fold change vs veh, RFX7 / RFU, GTPBP10 / Fold change vs veh, GTPBP10 / RFU, CNEP1R1 / Fold change vs veh, CNEP1R1 / RFU, BIVM-ERCC5 /// ERCC5 / Fold change vs veh, BIVM-ERCC5 /// ERCC5 / RFU, ILF3 / Fold change vs veh, ILF3 / RFU 11762660_at / Fold change /veh 11762660_at / RFU VCAN (11757783_s_at) / Fold change /veh VCAN (11757783_s_at) / RFU DDX43 (11728927_at) / Fold change /veh DDX43 (11728927_at) / RFU KRT8 (11758188_x_at) / Fold change /veh KRT8 (11758188_x_at) / RFU NKD1 (11759106_at) / Fold change /veh NKD1 (11759106_at) / RFU SRD5A1 (11742802_a_at) / Fold change /veh SRD5A1 (11742802_a_at) / RFU TPSAB1 /// TPSB2 (11721975_s_at) / Fold change /veh TPSAB1 /// TPSB2 (11721975_s_at) / RFU GSTM3 (11746129_a_at) / Fold change /veh GSTM3 (11746129_a_at) / RFU IL23R (11737362_x_at) / Fold change /veh IL23R (11737362_x_at) / RFU TMEM51 (11727254_a_at) / Fold change /veh TMEM51 (11727254_a_at) / RFU PIWIL2 (11732686_x_at) / Fold change /veh PIWIL2 (11732686_x_at) / RFU ORM1 (11744905_x_at) / Fold change /veh ORM1 (11744905_x_at) / RFU CCDC152 (11743942_at) / Fold change /veh CCDC152 (11743942_at) / RFU ECM1 (11717891_a_at) / Fold change /veh ECM1 (11717891_a_at) / RFU IL23R (11748794_a_at) / Fold change /veh IL23R (11748794_a_at) / RFU TNFAIP8L3 (11732012_x_at) / Fold change /veh TNFAIP8L3 (11732012_x_at) / RFU MBOAT4 (11741988_at) / Fold change /veh MBOAT4 (11741988_at) / RFU 11764193_at / Fold change /veh 11764193_at / RFU TMEM53 (11763286_at) / Fold change /veh TMEM53 (11763286_at) / RFU MAGEB2 (11727129_at) / Fold change /veh MAGEB2 (11727129_at) / RFU TMEM200A (11744735_a_at) / Fold change /veh TMEM200A (11744735_a_at) / RFU CCDC152 (11751479_a_at) / Fold change /veh CCDC152 (11751479_a_at) / RFU FAM211A (11726209_a_at) / Fold change /veh FAM211A (11726209_a_at) / RFU RGS16 (11746705_a_at) / Fold change /veh RGS16 (11746705_a_at) / RFU VCAN (11755009_s_at) / Fold change /veh VCAN (11755009_s_at) / RFU RHOB (11743442_s_at) / Fold change /veh RHOB (11743442_s_at) / RFU RGS16 (11720943_a_at) / Fold change /veh RGS16 (11720943_a_at) / RFU RGS16 (11720944_at) / Fold change /veh RGS16 (11720944_at) / RFU, VPS4B / Fold change vs veh, VPS4B / RFU, CREB1 / Fold change vs veh, CREB1 / RFU, DNAJC13 / Fold change vs veh, DNAJC13 / RFU, GNAQ / Fold change vs veh, GNAQ / RFU, CDK5R1 / Fold change vs veh, CDK5R1 / RFU, ZRANB3 / Fold change vs veh, ZRANB3 / RFU, CUL4A / Fold change vs veh, CUL4A / RFU, CCNY / Fold change vs veh, CCNY / RFU, UFL1 / Fold change vs veh, UFL1 / RFU, COG3 / Fold change vs veh, COG3 / RFU, DIAPH2 / Fold change vs veh, DIAPH2 / RFU, SKA2 / Fold change vs veh, SKA2 / RFU, AFF3 / Fold change vs veh, AFF3 / RFU, LMF1 / Fold change vs veh, LMF1 / RFU, IPO11 / Fold change vs veh, IPO11 / RFU, DFFB / Fold change vs veh, DFFB / RFU, FOXP1 / Fold change vs veh, FOXP1 / RFU, CARD8 / Fold change vs veh, CARD8 / RFU, STRN3 / Fold change vs veh, STRN3 / RFU, ADK / Fold change vs veh, ADK / RFU, RASSF2 / Fold change vs veh, RASSF2 / RFU, WIPF1 / Fold change vs veh, WIPF1 / RFU, LARP1B / Fold change vs veh, LARP1B / RFU, RASA1 / Fold change vs veh, RASA1 / RFU, RB1 / Fold change vs veh, RB1 / RFU, PPFIA1 / Fold change vs veh, PPFIA1 / RFU, MAT2A / Fold change vs veh, MAT2A / RFU, CCT5 / Fold change vs veh, CCT5 / RFU, WDR92 / Fold change vs veh, WDR92 / RFU, CUX1 / Fold change vs veh, CUX1 / RFU, TTC7A / Fold change vs veh, TTC7A / RFU, TMEM135 / Fold change vs veh, TMEM135 / RFU, DEPTOR / Fold change vs veh, DEPTOR / RFU, CPM / Fold change vs veh, CPM / RFU, DNAJB6 / Fold change vs veh, DNAJB6 / RFU, CACNA2D3 / Fold change vs veh, CACNA2D3 / RFU, DTX4 / Fold change vs veh, DTX4 / RFU, TFCP2 / Fold change vs veh, TFCP2 / RFU, GMCL1 /// GMCL1P1 / Fold change vs veh, GMCL1 /// GMCL1P1 / RFU, AEBP2 / Fold change vs veh, AEBP2 / RFU, SNHG1 /// SNORD22 /// SNORD25 /// SNORD26 /// SNORD27 /// SNORD28 /// SNORD29 /// SNORD31 / Fold change vs veh, SNHG1 /// SNORD22 /// SNORD25 /// SNORD26 /// SNORD27 /// SNORD28 /// SNORD29 /// SNORD31 / Fold change (Aza/veh), C12orf56 (ProbeSet 11735607_a_at) / Fold change (ACY-1035/veh), C12orf56 (ProbeSet 11735607_a_at) / Fold change (Aza/veh), FGFR1OP (ProbeSet 11751329_s_at) / Fold change (ACY-1035/veh), FGFR1OP (ProbeSet 11751329_s_at) / Fold change (Aza/veh), VPS36 (ProbeSet 11739960_a_at) / Fold change (ACY-1035/veh), VPS36 (ProbeSet 11739960_a_at) / RFU SYPL1 (11715823_x_at) / Fold change /veh SYPL1 (11715823_x_at) / RFU IGFBP7 (11715501_s_at) / Fold change /veh IGFBP7 (11715501_s_at) / RFU REEP3 (11722064_at) / Fold change /veh REEP3 (11722064_at) / RFU IGLL1 (11728026_x_at) / Fold change /veh IGLL1 (11728026_x_at): dose or concentration left out as unconfirmed",
  "conditions": "ProbeSet 11732281_s_at; LIST D",
  "data": [
    {"molecule": "Nc1ncn([C@@H]2O[C@H](CO)[C@@H](O)[C@H]2O)c(=O)n1", "note": "[azacitidine]", "values": [
      {"measurement": "RFU, FOXP1", "result": 174.32, "unit": "RFU"}
    ]}
  ]
}
